These results are taken from ChEMBL document CHEMBL4814073, “Ring-opening of five-membered heterocycles conjugated 4-isopropylresorcinol scaffold-based benzamides as HSP90 inhibitors suppressing tumor growth in vitro and in vivo” (Eur J Med Chem, 2021).

A word on the AUC: it is concentration integrated over time. By IC50 is commonly meant the concentration that gives 50% inhibition. As a reminder, the Cmax is the highest concentration seen after dosing.

Calls of active or inactive are those of the source. No cut-off for these calls is given here.

In series [1] the test system is A549. Briefly: Induction of apoptosis in human A549 cells assessed as increase in cleaved caspase 7 protein expression at 0.3 to 3 uM measured after 18 hrs by western blot analysis. The series is classed as functional, cell-based. As to conditions: dose 0.3-3 µM. (Immunoblotting shows a protein as a band on a membrane.)
Series [2] relates to A549. Kind of series: Induction of EGFR degradation in human A549 cells assessed as reduction in eGFR expression at 3 uM by immunoblot analysis. Format: functional, cell-based. As to conditions: time hrs <=24, TDE = time-dependent effect.
In series [3] the test system is A549. Briefly: Induction of cell cycle arrest in human A549 cells assessed as decrease in cdc2 expression at Tyr15 at 0.3 uM incubated for 24 hrs by Western blot analysis. The series is classed as functional, cell-based.
A short description of series [4]: Hepatic clearance in Sprague-Dawley rat by LC-MS/MS analysis. Format: ADME, tissue-based, Hepatocyte. As to conditions: hepatocytes.
Series [5] is described as follows: AUC (0 to t) in Sprague-Dawley rat at 2 mg/kg, iv measured after 1 hrs by LC-MS/MS analysis. The series is classed as ADME, organism-based. On the set-up: route intravenous, time 1 hrs, dose 2 mg/kg. As to conditions: in vivo.
For series [6], the system named is A549. Briefly: Induction of apoptosis in human A549 cells assessed as increase in cleaved caspase 3 protein expression at 0.3 to 3 uM measured after 18 hrs by western blot analysis. Format: functional, cell-based. As to conditions: dose 0.3-3 µM.
For series [7], the system named is A549. Kind of series: Antimigratory activity against human A549 cells assessed as inhibition of migration at 0.1 to 3 uM incubated for 6 hrs by crystal violet staining based by Boyden chamber method. Format: functional, cell-based. As to conditions: dose 0.1-3 µM.
The nature of series [8]: AUC (0 to infinity) in Sprague-Dawley rat at 2 mg/kg, iv measured after 1 hrs by LC-MS/MS analysis. As to conditions: in vivo. The series is classed as ADME, organism-based. On the set-up: route intravenous, dose 2 mg/kg, time 1 hrs.
The target of series [9] is Cytochrome P450 2C19 (Homo sapiens, UniProt P33261). Briefly: Inhibition of CYP2C19 in human liver microsomes using S-mephenytoin as substrate by LC-MS/MS analysis. Format: ADME.
Series [10] has as its target Cytochrome P450 2C9 (Homo sapiens, UniProt P11712). Briefly: Inhibition of CYP2C9 in human liver microsomes using diclofenac as substrate by LC-MS/MS analysis. Format: ADME.
The nature of series [11]: Cmax in Sprague-Dawley rat at 20 mg/kg, po measured after 1 hrs by LC-MS/MS analysis. Format: ADME, organism-based. On the set-up: route oral, dose 20 mg/kg, time 1 hrs. As to conditions: in vivo.
A short description of series [12]: Metabolic stability in Sprague-Dawley rat hepatocytes assessed as Intrinsic clearance by LC-MS/MS analysis. The series is classed as ADME, cell-based, Hepatocyte.
The target in series [13] is T1, Cytochrome P450 2C8 (Homo sapiens, UniProt P10632).
T1 sequence (P10632 whole entry): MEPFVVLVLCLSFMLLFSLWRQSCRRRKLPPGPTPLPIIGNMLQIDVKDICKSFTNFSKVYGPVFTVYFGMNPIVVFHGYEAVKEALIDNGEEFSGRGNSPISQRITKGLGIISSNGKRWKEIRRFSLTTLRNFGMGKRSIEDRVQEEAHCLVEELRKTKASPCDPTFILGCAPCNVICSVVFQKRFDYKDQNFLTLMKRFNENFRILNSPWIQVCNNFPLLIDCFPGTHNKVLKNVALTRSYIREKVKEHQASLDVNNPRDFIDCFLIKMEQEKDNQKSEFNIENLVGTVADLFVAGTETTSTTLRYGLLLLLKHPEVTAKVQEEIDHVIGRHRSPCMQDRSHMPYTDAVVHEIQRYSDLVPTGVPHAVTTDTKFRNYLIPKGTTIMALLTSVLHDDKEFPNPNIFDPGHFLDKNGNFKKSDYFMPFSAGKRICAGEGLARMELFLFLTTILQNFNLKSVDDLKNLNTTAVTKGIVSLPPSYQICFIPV
Kind of series: Inhibition of CYP2C8 in human liver microsomes using amodiaquine as substrate by LC-MS/MS analysis. Format: ADME.

In series [14] the test system is A549. Briefly: Induction of apoptosis in human A549 cells assessed as increase in cleaved caspase 9 protein expression at 0.3 to 3 uM measured after 18 hrs by western blot analysis. The series is classed as functional, cell-based. As to conditions: dose 0.3-3 µM.
The subject of series [15] is A549. Kind of series: Antitumor activity against human A549 cells xenografted in BALB/c mouse assessed as tumor growth inhibition at 25 mg/kg, po treated daily relative to control. As to conditions: read-out: TGI.

Cytochrome P450 2C9, sequence (P11712 whole entry): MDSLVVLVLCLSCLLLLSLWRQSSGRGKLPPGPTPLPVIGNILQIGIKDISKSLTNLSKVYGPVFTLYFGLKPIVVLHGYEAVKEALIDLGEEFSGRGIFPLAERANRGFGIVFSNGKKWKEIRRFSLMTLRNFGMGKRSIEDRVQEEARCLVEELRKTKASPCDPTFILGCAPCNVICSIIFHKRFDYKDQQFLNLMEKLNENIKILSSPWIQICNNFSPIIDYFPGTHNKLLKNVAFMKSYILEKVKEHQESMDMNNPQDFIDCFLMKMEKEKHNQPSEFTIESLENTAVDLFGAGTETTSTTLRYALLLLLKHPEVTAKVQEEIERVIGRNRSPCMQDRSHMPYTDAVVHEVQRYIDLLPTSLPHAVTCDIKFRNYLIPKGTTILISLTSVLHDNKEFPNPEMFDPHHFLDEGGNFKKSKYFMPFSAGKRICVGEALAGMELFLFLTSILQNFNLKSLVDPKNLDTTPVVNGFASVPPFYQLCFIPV
Cytochrome P450 2C19, sequence (P33261 whole entry): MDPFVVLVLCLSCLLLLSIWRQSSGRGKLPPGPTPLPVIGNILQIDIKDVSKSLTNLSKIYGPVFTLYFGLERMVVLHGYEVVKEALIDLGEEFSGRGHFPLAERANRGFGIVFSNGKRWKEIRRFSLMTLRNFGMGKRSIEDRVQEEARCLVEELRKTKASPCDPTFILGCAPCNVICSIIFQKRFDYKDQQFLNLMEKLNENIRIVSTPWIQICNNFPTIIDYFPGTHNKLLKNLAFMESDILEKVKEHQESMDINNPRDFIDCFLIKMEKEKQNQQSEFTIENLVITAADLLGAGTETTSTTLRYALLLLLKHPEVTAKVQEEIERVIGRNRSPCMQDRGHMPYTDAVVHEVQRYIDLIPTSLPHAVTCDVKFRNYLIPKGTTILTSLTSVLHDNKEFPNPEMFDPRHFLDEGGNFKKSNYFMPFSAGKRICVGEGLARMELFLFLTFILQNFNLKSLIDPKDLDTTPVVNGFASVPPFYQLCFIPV

Turning to `CCN(C(=O)c1cc(C(C)C)c(O)cc1O)c1cccnc1`, the result in series [1], in series [3], in series [6], in series [7] and in [14] was Active. The Activity result in [2] was “Tde”. Further, in series [4], the CLhep predicted is 51.2 mL/min/kg. Also, the AUCt in [5] was determined as 487 ng·h/mL. Also, in series [8], the AUC worked out at 456 ng·h/mL. The IC50 was 7.8 µM in series [9], 15 µM in series [10] and above 50 µM in series [13]. Besides, the Cmax in series [11] was determined as 40.5 ng/mL. In series [12], the CLint is 751 mL/min/kg. Further, in series [15], the inhibition in vivo at 25 mg/kg was found to be 46.7%.
